Source: patent US10209241B2, “High throughput sensitization detection devices and methods” (Rutgers, The State University of New Jersey, priority 2011, dated 2019)

System: Mutz DCs with T-cells
Assay: T-cell activation by sensitized dendritic cells in microfluidic well-trap device (Fluo-4 calcium flux, time lapse microscopy)
Format: cell-based
Details: Mutz DCs sensitized with PPD, Fluo-4 labeled T-cells in the chamber, time lapse microscopy (FIG. 5)
Text: T cells are isolated from the peripheral blood mononuclear fraction by positive selection using CD3 microbeads and magnetic cell separator (Miltenyi Biotec Inc., Auburn, Calif.), following the manufacturer's instructions. The T cells are frozen in liquid nitrogen and thawed prior to use. The T-cells are labeled with a calcium sensitive fluorescent dye, Fluo-4. The present method measures the increase in calcium flux into T-cells, as they form immunological synapses with dendritic cells. For labeling, the T cells are suspended at a density of 1-2×10^6 cells/ml in the medium supplemented with the fluo4 dye diluted to a final concentration of 1 μM. The cells are incubated at 37° C. for 20 minutes, and then washed twice to remove the remaining dye in the medium. The labeled T cells are suspended in the fresh medium prior to loading in the microdevice.
The device is first primed with PBS. Any bubbles, remaining from the priming process, are removed by placing the device in a vacuum dessicater for 1-2 minutes. Once primed, the device is flushed with media. Dendritic cells (DCs) are introduced into the device from inlet 1, by means of a 2.5 μL pipette. Additional head is provided by topping off the pipette tip attached to the device to the required level. The set-screw valves may be employed to adjust the flow to allow the cells to slow down enough so they can settle. […]

Nc1ccc(N)cc1 [PPD]
T-cell clustering around dendritic cells and fluorescence (calcium flux) over time: Clustering accompanied by increase in fluorescence is observed
